In US12281098B2, “Five-membered-fused six-membered compound, preparation method, pharmaceutical composition and use” (HANGZHOU POLYMED BIOPHARMACEUTICALS, INC., priority 2021, dated 2025):

target: T1, IRAK4 kinase (Homo sapiens, UniProt Q9NWZ3); experiment: Compound inhibition of IRAK4 kinase activity (fluorescence microfluidic mobility shift assay); assay type: biochemical; conditions: Table 1; 10 μM ATP, 6 nM IRAK4 kinase
T1 construct: purchased Carna 09-145
T1 sequence (Q9NWZ3 1-460): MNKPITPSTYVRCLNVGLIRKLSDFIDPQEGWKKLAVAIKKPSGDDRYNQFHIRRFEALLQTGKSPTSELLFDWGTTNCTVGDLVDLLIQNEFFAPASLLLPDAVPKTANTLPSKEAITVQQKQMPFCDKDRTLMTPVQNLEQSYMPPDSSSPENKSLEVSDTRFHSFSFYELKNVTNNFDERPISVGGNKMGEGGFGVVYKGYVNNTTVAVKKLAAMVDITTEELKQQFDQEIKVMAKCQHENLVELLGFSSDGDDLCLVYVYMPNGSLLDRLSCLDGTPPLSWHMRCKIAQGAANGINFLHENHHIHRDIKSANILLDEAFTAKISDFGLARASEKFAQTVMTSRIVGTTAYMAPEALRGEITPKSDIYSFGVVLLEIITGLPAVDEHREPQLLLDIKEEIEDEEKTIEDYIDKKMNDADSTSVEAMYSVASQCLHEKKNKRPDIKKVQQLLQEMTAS
Procedure: Based on the experimental method of fluorescence microfluidic mobility shift assay, the IC50 value of the compound for competitive binding of ATP to IRAK4 kinase was determined. The initial detection concentration of the compound was 10 μM, which was 4-fold serially diluted to 0.38 nM and assayed in duplicate. In this case, commercially available staurosporine was the standard control for the assay.
1) IRAK4 kinase was dissolved in kinase buffer (50 mM HEPES pH 7.5, 10 mM MgCl2, 2 mM DDT, and 0.01% Brij-35) at a final concentration of 6 nM.
2) The substrate peptide FAM-P8 and ATP were dissolved in the above kinase buffer, and the final concentrations of the substrate peptide FAM-P8 and ATP for IRAK4 were 3 μM and 10 μM, respectively.
3) Compound dilution: The compound was first diluted to 50 μM, and then 4-fold serially diluted with DMSO. In this case, the solution without compound and kinase served as the blank control, corresponding to the “minimum value” shown below; the solution without compound but containing kinase, adenosine 5′-triphosphate disodium salt hydrate, DMSO, and the buffer served as the positive control, corresponding to the “maximum value” shown below.
4) Kinase reaction and termination: 10 μL of the kinase buffer was added to a 384-well plate containing 5 μL of the compound to be tested, and the mixture was incubated at room temperature for 10 minutes; another 10 μL of buffer containing the substrate peptide and adenosine 5′-triphosphate disodium salt hydrate was added to the 384-well plate, and after incubation at 28° C. for 1 hour, 25 μL of termination solution (100 mM HEPES pH 7.5, 50 mM EDTA, 0.2% Coating Reagent #3, and 0.015% Brij-35) was added to each well to terminate the reaction.
5) Data reading: CaliperEZ Reader II instrument was used to read the conversion rate data. Setting conditions: downstream voltage as −500 V, upstream voltage as −2250 V, base pressure as −0.5 PSI, and screening pressure as −1.2 PSI.
6) Data calculation: the conversion rate data was copied from CaliperEZ Reader II, and the conversion rate was converted into inhibition rate data. The calculation formula is as follows: Inhibition percentage (%)=(maximum value−conversion rate)/(maximum value−minimum value)*100%
IC50 values were fitted with XLFit excel add-in version 5.4.0.8.

| SMILES | IC50 [nM] |
| --- | --- |
| O=C(CCCN1Cc2cc(NC(=O)c3cccc(C(F)(F)F)n3)c(Br)cc2C1=O)NCCOCCOCCNc1cccc2c1C(=O)N(C1CCC(=O)NC1=O)C2=O (stereo not drawn) [III-1] | ≥ 10000 |
| O=C1CCC(N2C(=O)c3cccc(NCCOCCOCCOCCN4Cc5cc(NC(=O)c6cccc(C(F)(F)F)n6)c(Br)cc5C4=O)c3C2=O)C(=O)N1 (stereo not drawn) [III-4] | 1000 to 10000 |
| CC(C)(O)c1cc2nn(CCN3CCN(CC(=O)N4CC5(CCN(c6cccc7c6C(=O)N(C6CCC(=O)NC6=O)C7=O)CC5)C4)C3=O)cc2cc1NC(=O)c1cccc(C(F)(F)F)n1 (stereo not drawn) [III-12] | 100 to 1000 |
| CC(C)(O)c1cc2nn(CCN3CCN(CC(=O)NC4CCN(c5cccc6c5C(=O)N(C5CCC(=O)NC5=O)C6=O)CC4)C3=O)cc2cc1NC(=O)c1cccc(C(F)(F)F)n1 (stereo not drawn) [III-13] | 100 to 1000 |
| CC(C)(O)c1cc2nn(CCN3CCN(CC(=O)N4CCN(c5cccc6c5C(=O)N(C5CCC(=O)NC5=O)C6=O)CC4)C3=O)cc2cc1NC(=O)c1cccc(C(F)(F)F)n1 (stereo not drawn) [III-14] | 100 to 1000 |
| Cc1ncsc1-c1ccc([C@H](C)NC(=O)C2C[C@@H](O)CN2C(=O)[C@@H](NC(=O)COCCNC(=O)CN2CCN(CCn3cc4cc(NC(=O)c5cccc(C(F)(F)F)n5)c(C(C)(C)O)cc4n3)C2=O)C(C)(C)C)cc1 (stereo partly drawn) [III-15] | 100 to 1000 |

same assay, conditions: Table 2; 10 μM ATP, 6 nM IRAK4 kinase

| SMILES | IC50 [nM] |
| --- | --- |
| O=C(CCCN1Cc2cc(NC(=O)c3cccc(C(F)(F)F)n3)c(Br)cc2C1=O)NCCOCCOCCNc1cccc2c1C(=O)N(C1CCC(=O)NC1=O)C2=O (stereo not drawn) [III-1] | ≥ 10000 |
| O=C1CCC(N2C(=O)c3cccc(NCCOCCOCCOCCN4Cc5cc(NC(=O)c6cccc(C(F)(F)F)n6)c(Br)cc5C4=O)c3C2=O)C(=O)N1 (stereo not drawn) [III-4] | 1000 to 10000 |
| CC(C)(O)c1cc2nn(CCN3CCN(CC(=O)N4CC5(CCN(c6cccc7c6C(=O)N(C6CCC(=O)NC6=O)C7=O)CC5)C4)C3=O)cc2cc1NC(=O)c1cccc(C(F)(F)F)n1 (stereo not drawn) [III-12] | 100 to 1000 |
| CC(C)(O)c1cc2nn(CCN3CCN(CC(=O)NC4CCN(c5cccc6c5C(=O)N(C5CCC(=O)NC5=O)C6=O)CC4)C3=O)cc2cc1NC(=O)c1cccc(C(F)(F)F)n1 (stereo not drawn) [III-13] | 100 to 1000 |
| CC(C)(O)c1cc2nn(CCN3CCN(CC(=O)N4CCN(c5cccc6c5C(=O)N(C5CCC(=O)NC5=O)C6=O)CC4)C3=O)cc2cc1NC(=O)c1cccc(C(F)(F)F)n1 (stereo not drawn) [III-14] | 100 to 1000 |
| Cc1ncsc1-c1ccc([C@H](C)NC(=O)C2C[C@@H](O)CN2C(=O)[C@@H](NC(=O)COCCNC(=O)CN2CCN(CCn3cc4cc(NC(=O)c5cccc(C(F)(F)F)n5)c(C(C)(C)O)cc4n3)C2=O)C(C)(C)C)cc1 (stereo partly drawn) [III-15] | 100 to 1000 |
| COc1cc2c(cc1NC(=O)c1cccc(C(F)(F)F)n1)CN(CCC(C)(C)C(=O)N1CCC3(CC1)CCN(c1ncc(C(=O)N[C@H](C(=O)N4C[C@H](O)C[C@H]4C(=O)N[C@@H](C)c4ccc(-c5scnc5C)cc4)C(C)(C)C)cn1)CC3)C2=O [III-32] | 100 to 1000 |
| COc1cc2c(cc1NC(=O)c1cccc(C(F)(F)F)n1)CN(CCC(C)(C)C(=O)N1CCC3(CC1)CCN(c1ncc(Nc4cccc5c4C(=O)N(C4CCC(=O)NC4=O)C5=O)cn1)CC3)C2=O (stereo not drawn) [III-33] | 100 to 1000 |
| COc1cc2nn(CCN3CCN(CC(=O)N4CCC5(CC4)CCN(c4cccc6c4C(=O)N(C4CCC(=O)NC4=O)C6=O)CC5)CC3)cc2cc1NC(=O)c1cccc(C(F)(F)F)n1 (stereo not drawn) [III-38] | < 100 |
| COc1cc2nn(CCN3CCN(C4CCC5(CC4)CCN(c4cccc6c4C(=O)N(C4CCC(=O)NC4=O)C6=O)CC5)CC3)cc2cc1NC(=O)c1cccc(C(F)(F)F)n1 (stereo not drawn) [III-40] | < 100 |
| COc1cc2c(cc1NC(=O)c1cccc(C(F)(F)F)n1)CN(CCN1CCN(CC(=O)N3CCC4(CCC(C(=O)NC(C(=O)N5CC(O)CC5C(=O)NC(C)c5ccc(-c6scnc6C)cc5)C(C)(C)C)CC4)CC3)CC1)C2=O (stereo not drawn) [III-43] | 100 to 1000 |
| COc1cc2c(cc1NC(=O)c1cccc(C(F)(F)F)n1)CN(CCN1CCN(CC(=O)N3CCC4(CCC(NC(C(=O)N5CC(O)CC5C(=O)NC(C)c5ccc(-c6scnc6C)cc5)C(C)(C)C)CC4)CC3)CC1)C2=O (stereo not drawn) [III-44] | 100 to 1000 |
| COc1cc2nn(CCN3CCN(CC(=O)N4CCC5(CC4)CCN(c4cccc6c4C(=O)N(C4CCC(=O)NC4=O)C6=O)CC5)[C@H](C)C3)cc2cc1NC(=O)c1cccc(C(F)(F)F)n1 (stereo partly drawn) [III-45] | < 100 |
| COc1cc2nn(CCN3CCN(CC(=O)N4CCC5(CC4)CCN(c4cccc6c4C(=O)N(C4CCC(=O)NC4=O)C6=O)CC5)[C@@H](C)C3)cc2cc1NC(=O)c1cccc(C(F)(F)F)n1 (stereo partly drawn) [III-46] | < 100 |
| COc1cc2nn(CCN3CCN(CC(=O)N4CCC5(CCC(C(=O)N[C@H](C(=O)N6C[C@H](O)C[C@H]6C(=O)N[C@@H](C)c6ccc(-c7scnc7C)cc6)C(C)(C)C)CC5)CC4)[C@H](C)C3)cc2cc1NC(=O)c1cccc(C(F)(F)F)n1 [III-48] | < 100 |
| CC(C)(O)c1cc2nn(CCN3CCN(CC(=O)N4CCC5(CC4)CCN(c4cccc6c4C(=O)N(C4CCC(=O)NC4=O)C6=O)CC5)CC3)cc2cc1NC(=O)c1cccc(C(F)(F)F)n1 (stereo not drawn) [III-50] | < 100 |
| CC(C)Oc1cc2nn(CCN3CCN(CC(=O)N4CCC5(CC4)CCN(c4cccc6c4C(=O)N(C4CCC(=O)NC4=O)C6=O)CC5)CC3)cc2cc1NC(=O)c1cccc(C(F)(F)F)n1 (stereo not drawn) [III-51] | < 100 |

| SMILES | IC50 [nM] |
| --- | --- |
| COc1cc2nn(CCN3C4CCC3CN(CC(=O)N3CCC5(CC3)CCN(c3cccc6c3C(=O)N(C3CCC(=O)NC3=O)C6=O)CC5)C4)cc2cc1NC(=O)c1cccc(C(F)(F)F)n1 (stereo not drawn) [III-53] | < 100 |
| COc1cc2nn(CCN3CCN(CC(=O)N4CCC5(CC4)CCN(c4cc6c(cc4F)C(=O)N(C4CCC(=O)NC4=O)C6=O)CC5)CC3)cc2cc1NC(=O)c1cccc(C(F)(F)F)n1 (stereo not drawn) [III-55] | < 100 |
| Cc1ncsc1-c1ccc([C@H](C)NC(=O)[C@@H]2C[C@@H](O)CN2C(=O)[C@@H](NC(=O)C2CCC3(CC2)CCN(C(=O)CN2CCN(CCn4cc5cc(NC(=O)c6cccc(C(F)(F)F)n6)c(OC(C)C)cc5n4)CC2)CC3)C(C)(C)C)cc1 [III-57] | < 100 |
| COc1cc2c(cc1NC(=O)c1cccc(C(F)(F)F)n1)CN(CCN1CCN(CC(=O)N3CCC4(CC3)CCN(c3cccc5c3C(=O)N(C3CCC(=O)NC3=O)C5=O)CC4)CC1)C2=O (stereo not drawn) [III-58] | 100 to 1000 |
| COc1cc2c(cc1NC(=O)c1cccc(C(F)(F)F)n1)CN(CCC(C)(C)C(=O)N1CCC3(CC1)CN(c1cccc4c1C(=O)N(C1CCC(=O)NC1=O)C4=O)C3)C2=O (stereo not drawn) [III-59] | 100 to 1000 |
| CC(C)Oc1cc2nn(CCN3CCN(CC(=O)N4CC5(C4)CN(c4cccc6c4C(=O)N(C4CCC(=O)NC4=O)C6=O)C5)CC3)cc2cc1NC(=O)c1cccc(C(F)(F)F)n1 (stereo not drawn) [III-60] | < 100 |
| COc1cc2nn(CCN3CCN(CC(=O)N4CC5(C4)CN(c4cccc6c4C(=O)N(C4CCC(=O)NC4=O)C6=O)C5)CC3)cc2cc1NC(=O)c1cccc(C(F)(F)F)n1 (stereo not drawn) [III-61] | < 100 |
| COc1cc2nn(CCN3CCN(CC(=O)N4CCC5(CC4)CN(c4cccc6c4C(=O)N(C4CCC(=O)NC4=O)C6=O)C5)CC3)cc2cc1NC(=O)c1cccc(C(F)(F)F)n1 (stereo not drawn) [III-62] | < 100 |
| COc1cc2c(cc1NC(=O)c1cccc(C(F)(F)F)n1)CN(CCC(C)(C)C(=O)N1CC3(C1)CN(c1cccc4c1C(=O)N(C1CCC(=O)NC1=O)C4=O)C3)C2=O (stereo not drawn) [III-64] | 100 to 1000 |
| COc1cc2nn(CCC3CCN(CC(=O)N4CCC5(CC4)CCN(c4cccc6c4C(=O)N(C4CCC(=O)NC4=O)C6=O)CC5)CC3)cc2cc1NC(=O)c1cccc(C(F)(F)F)n1 (stereo not drawn) [III-66] | < 100 |
| COc1cc2nn(CC#CC3CCN(CC(=O)N4CCC5(CC4)CCN(c4cccc6c4C(=O)N(C4CCC(=O)NC4=O)C6=O)CC5)CC3)cc2cc1NC(=O)c1cccc(C(F)(F)F)n1 (stereo not drawn) [III-67] | < 100 |
| COc1cc2nn(CCC3CCN(CC(=O)N4CCC5(CCC(C(=O)N[C@H](C(=O)N6C[C@H](O)C[C@H]6C(=O)N[C@@H](C)c6ccc(-c7scnc7C)cc6)C(C)(C)C)CC5)CC4)CC3)cc2cc1NC(=O)c1cccc(C(F)(F)F)n1 [III-68] | < 100 |
| COc1cc2nn(CCC3CCN(CC(=O)N4CC5(CC(CC(=O)N[C@H](C(=O)N6C[C@H](O)C[C@H]6C(=O)N[C@@H](C)c6ccc(-c7scnc7C)cc6)C(C)(C)C)C5)C4)CC3)cc2cc1NC(=O)c1cccc(C(F)(F)F)n1 [III-70] | < 100 |
| COc1cc2nn(CCN3CCC(CC(=O)N4CCC5(CC4)CCN(c4cccc6c4C(=O)N(C4CCC(=O)NC4=O)C6=O)CC5)CC3)cc2cc1NC(=O)c1cccc(C(F)(F)F)n1 (stereo not drawn) [III-71] | < 100 |
| COc1cc2nn(CCN3CCC(CC(=O)N4CC5(C4)CN(c4cccc6c4C(=O)N(C4CCC(=O)NC4=O)C6=O)C5)CC3)cc2cc1NC(=O)c1cccc(C(F)(F)F)n1 (stereo not drawn) [III-72] | < 100 |
| O=C1CCC(N2C(=O)c3cccc(N4CCC5(CCN(C(=O)CN6CCN(CCn7cc8cc(NC(=O)c9cccc(C(F)(F)F)n9)c(OC(F)(F)F)cc8n7)CC6)CC5)CC4)c3C2=O)C(=O)N1 (stereo not drawn) [III-73] | 100 to 1000 |
